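Growth conditions: 96-well plates. Treatment: test compound, 48 hours, 5 concentrations. Analysis: linear interpolation between bracketing concentrations; unreached endpoints set to highest concentration. Definition used: TGI = concentration required for complete inhibition of growth.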
Key:
Assay in all cases: DTP human tumour cell line panel, 48 h
786-0 renal = system: 786-0 renal
A549 NSCLC = system: A549 NSCLC
HCT-15 colon = system: HCT-15 colon
HS 578T breast = system: HS 578T breast
K-562 leukemia = system: K-562 leukemia
MDA-MB-231 breast = system: MDA-MB-231 breast
MDA-MB-435 = system: MDA-MB-435
MOLT-4 leukemia = system: MOLT-4 leukemia
SK-MEL-5 melanoma = system: SK-MEL-5 melanoma
SNB-75 CNS = system: SNB-75 CNS
SW-620 colon = system: SW-620 colon
NCI-H23 lung = system: NCI-H23 lung
NCI-H522 lung = system: NCI-H522 lung

Compound | TGI (786-0 renal) [µM] | TGI (A549 NSCLC) [µM] | TGI (HCT-15 colon) [µM] | TGI (HS 578T breast) [µM] | TGI (K-562 leukemia) [µM] | TGI (MDA-MB-231 breast) [µM] | TGI (MDA-MB-435) [µM] | TGI (MOLT-4 leukemia) [µM] | TGI (SK-MEL-5 melanoma) [µM] | TGI (SNB-75 CNS) [µM] | TGI (SW-620 colon) [µM] | TGI (NCI-H23 lung) [µM] | TGI (NCI-H522 lung) [µM]
COc1cc(/C=C2\N=C(c3ccccc3)N(/N=C/c3cc4cc(C)ccc4nc3Cl)C2=O)ccc1O | > 100 | > 100 | > 100 | > 100 | > 100 | > 100 | 36.7 | 47.8 | > 100 | 83.9 | > 100 |  | 
N=C1SCCS1 | > 100 | > 100 | > 100 |  | > 100 |  |  | > 100 | > 100 | > 100 | > 100 | > 100 | > 100
CCOC(=O)/C(C#N)=N\Nc1ccc(-n2c(C)nc3ccc(Br)cc3c2=O)cc1 | > 100 | > 100 | > 100 | > 100 | > 100 | > 100 | > 100 | > 100 | > 100 | > 100 | > 100 | > 100 | 
COC(=O)/C=C(\S/C(=C(/c1ccccc1)n1cc(C(=O)OC)c(C(=O)OC)n1)c1ccccc1)C(=O)OC | > 100 | 62.6 | 29 | 96.3 | 31.8 | 44.6 | 32.9 | 12.4 | 44.5 | 95.2 | 16.9 | 38 | 
O=[N+]([O-])c1ccc2nc(/C=C(\O)c3ccccc3)c(/C=C(\O)c3ccc(Cl)cc3)nc2c1 | > 100 | > 100 | > 100 |  | > 100 | > 100 | > 100 | > 100 | > 100 | 64.9 |  | > 100 | 79.7
CCOP(=O)(OCC)OC1CC(n2cnc3c(N(CC)CC)ncnc32)OC1CO[Si](C)(C)C(C)(C)C (centres undefined) | 30 | 29.8 | 45 | 77.1 | 57.6 |  | 31.7 | 30.7 | 31.4 | 23.3 | 35.2 | 37.2 | 27.6
O=c1[nH]nc(Cc2ccc(Cl)cc2)n1Nc1ccccc1 | > 100 | > 100 | > 100 | > 100 | > 100 | > 100 | > 100 | > 100 | > 100 | > 100 | > 100 | > 100 | 
COc1cc(O)c2c(=O)cc(C3(OC(C)=O)C=CC(OC4OC(CO)C(O)C(O)C4O)C=C3)oc2c1 (centres undefined) | > 100 | > 100 | > 100 |  | > 100 | > 100 | > 100 | > 100 | > 100 | > 100 | > 100 | > 100 | > 100
CC(=O)Nc1ccc2c(c1)C(=Nc1ccc(C(=O)O)cc1)c1ccccc1-2 | > 100 | > 100 | > 100 | > 100 | > 100 |  | > 100 | > 100 | > 100 |  | > 100 | > 100 | > 100
CCCN=C1S/C(=C/c2ccc(OC)c(OC)c2)C(=O)N1c1ccccc1 | 50.2 | > 100 | > 100 | > 100 | > 100 | 92.6 | > 100 | > 100 | > 100 |  | > 100 | > 100 | > 100
OCC1OC(NC(=S)NCSCCC(F)(F)C(F)(F)C(F)(F)C(F)(F)C(F)(F)C(F)(F)F)C(O)C(O)C1O (centres undefined) | > 100 | > 100 | > 100 | > 100 | 56.4 | > 100 | > 100 | > 100 |  | > 100 | > 100 | > 100 | 
Cc1ccc(CCCC(=O)O)cc1C | > 100 | > 100 | > 100 |  | > 100 | > 100 | > 100 | > 100 | > 100 | > 100 | > 100 | > 100 | > 100
c1ncc(C23C4C5C6C4C2C6C53)[nH]1 (centres undefined) | > 100 | > 100 | > 100 | > 100 | > 100 | > 100 | > 100 | > 100 | > 100 | > 100 | > 100 | > 100 | 
c1ccc(NC2(c3nnnn3C3CCCCC3)CCNCC2)cc1 | 28.6 | > 100 | 51.6 | 32.2 |  | > 100 | 38 | 43.5 | 34.6 | 32.7 | 43.4 | 52.4 | 
COc1ccc2c(c1)OCC1Cc3cccc(OC)c3OC21 (centres undefined) | > 100 | > 100 | > 100 |  |  | > 100 | > 100 | 80.7 | 35.7 |  | > 100 | > 100 | > 100
N#CCCN(CCC#N)c1ccc(/C=C2\N=C(c3ccccc3)N(NC(=O)c3ccncc3)C2=O)cc1 | > 100 | > 100 | > 100 | > 100 | > 100 | > 100 | > 100 | > 100 | > 100 |  | > 100 |  | 
CC(=O)/C(=C\n1c(=S)[nH]c2ccc([N+](=O)[O-])cc21)C(=O)Nc1ccccc1C | > 100 | > 100 | > 100 |  | > 100 | > 100 | > 100 | > 100 | > 100 |  | > 100 | > 100 | > 100
CCOC(=O)c1c(C)n(-c2ccc(C)cc2)c2c1cc(O)c1[nH]c3c(c12)CCCC3 | 37.1 | > 100 | > 100 |  | 48.8 | 81.7 | 62.2 | 22.4 | 24.3 | 12.4 | 39 | 67 | 27.4

From PubChem BioAssay (NCI)
